Read-outs that look alike come from different tables or passages of the source.
Assays:
[1] = test system: squamous cell carcinoma of the epidermis (A431); assay: In-vitro photo-cytotoxicity, MTT assay, A431; format: cell-based; conditions: 1 h incubation, MTT after 24 h, read-out: IC50 (maximum response set to zero)
Protocol: (§1) The activity of compound IIIa as a photosensitising agent in photodynamic therapy was evaluated on two in-vitro tumour models: squamous cell carcinoma of the epidermis (A431) and glioblastoma multiforme (U87MG). Cells cultured on 96-well plates were treated with increasing concentrations of IIIa dispersed in the culture medium for one hour. At the end of the incubation, the medium was replaced, and the cells were exposed to LED light (λmax 462 nm) for 30 minutes, or were left in the dark during the same time. At the end of the 30 minutes, the cells were placed back and maintained in the incubator for 24 hours before measuring the metabolic activity by MTT assay. Six replicates were used for each condition, and cell viability of 100% was calculated from the response of untreated cells not exposed to LED light. […] The high specificity of IIIa, defined as toxicity only when exposed to light, is evident from the difference in IC50 values, which indicate a potent cytotoxic activity in the presence of light irradiation and substantial inertia in the dark at the concentrations tested, as shown in Table 3.
The activity of compound IIIb as a photosensitising agent in photodynamic therapy was evaluated on an in vitro tumour model, i.e., squamous cell carcinoma of the epidermis (A431), following the same protocol as compound IIIa. […] The high specificity of IIIb, defined as toxicity only when exposed to light, is evident from the difference in IC50 values, which indicate a potent cytotoxic activity in the presence of light irradiation and substantial inertia in the dark at test concentrations, see Table 4.
The activity of compound IIIb encapsulated in cubosomes as a photosensitising agent in photodynamic therapy was evaluated on an in vitro tumour model: squamous cell carcinoma of the epidermis (A431), following the same protocol as compound IIIa and IIIb as such. […] However, the incorporation into a delivery system can bring numerous benefits, including increased distribution in the tumour after in vivo administration, increased stability and solubility, and improved crossing of biological barriers.

[2] = Singlet oxygen quantum yield by direct 1O2 phosphorescence at 1270 nm; format: physicochemical; conditions: acetonitrile; direct phosphorescence signal of 1O2 at 1270 nm; reference [Ru(phen)3Cl2]
Protocol: The capacity of complexes IIIa-c to efficiently generate singlet oxygen (^1O2) upon irradiation with light is a key factor in the evaluation of their potential as photosensitising agents for applications in photodynamic therapy. In this connection, the singlet oxygen quantum yields of complexes IIIa-c were determined by means of direct phosphorescence signal of ^1O2 at 1270 nm generated by irradiation of acetonitrile solutions of the complexes and using dichlorotris(1,10-phenanthroline)ruthenium (II) chloride ([Ru(phen)3Cl2]) as a standard reference. A Horiba FluoroMax Plus spectrofluorometer was used for these measurements.

[3] = test system: glioblastoma multiforme (U87MG); assay: In-vitro photo-cytotoxicity, MTT assay, U87MG; format: cell-based; conditions: 1 h incubation, MTT after 24 h, read-out: IC50 (maximum response set to zero)
Protocol: as §1

[4] = DHN assay (indirect UV-visible probe for 1O2); format: physicochemical; conditions: acetonitrile, LED 400-500 nm; for kobs, rate constant of the DHN photo-oxidation process: [DHN]=330 μM, [Ru]=10 μM; for Φ1O2 (b) singlet oxygen quantum yield: indirect UV-visible measurements with DHN probe, standard [Ru(phen)3]Cl2
Protocol: A confirmation of the production of singlet oxygen (^1O2) with such a high quantum yields by the three IIIa-c molecular systems was obtained using 1,5-dihydroxynaphthalene (DHN) as an indirect chemical probe for ^1O2 and [Ru(phen)3]Cl2 as a commercial standard. In the DHN assay, the probe is selectively and quantitatively oxidised in the presence of ^1O2 to give the corresponding photo-oxidation product 5-hydroxy-1,4-naphthalenedione (Juglone). The production of ^1O2 was assessed by monitoring the decrease in the DHN absorption band at λ=297 nm and the corresponding increase in the Juglone band at λ=427 nm. […] On this basis, the quantum yield of formation of ^1O2 can be obtained via the equation
where φΔ are the quantum yields of ^1O2 production from the photosensitising agents, k are the rate constants obtained from the DHN assays, labs represents the absolute value for the integration of the absorption of the photosensitising agents in the spectral emission region of the LED lamp (400 nm to 500 nm), and the subscript ST indicates the commercial standard [Ru(phen)3]Cl2.

[5] = test system: Methastatic Lung Adenocarcinoma (Calu-3); assay: In-vitro photo-cytotoxicity, MTT assay, Calu-3; format: cell-based; conditions: read-out: IC50 (maximum response set to zero)
Protocol: The activity of compound IIIa as a photosensitising agent in photodynamic therapy was evaluated on two in-vitro tumour models: squamous cell carcinoma of the epidermis (A431) and glioblastoma multiforme (U87MG). Cells cultured on 96-well plates were treated with increasing concentrations of IIIa dispersed in the culture medium for one hour. At the end of the incubation, the medium was replaced, and the cells were exposed to LED light (λmax 462 nm) for 30 minutes, or were left in the dark during the same time. At the end of the 30 minutes, the cells were placed back and maintained in the incubator for 24 hours before measuring the metabolic activity by MTT assay. Six replicates were used for each condition, and cell viability of 100% was calculated from the response of untreated cells not exposed to LED light. […]
The activity of compound IIIc as a photosensitising agent in photodynamic therapy was evaluated on an in-vitro tumour model, Methastatic Lung Adenocarcinoma (Calu-3), following the same protocol as compounds IIIa and IIIb. […]
The activity of compound IIIc encapsulated in cubosomes as a photosensitising agent in photodynamic therapy was evaluated on an in vitro tumour model: Methastatic Lung Adenocarcinoma (Calu-3), following the same protocol as compound IIIa and IIIb. […]

[6] = value of the commercial standard used for the calculation; cited from earlier work
[7] = 30′ LED light exposure (λmax 462 nm)

Compound | IC50 [1, 7] | IC50 ([1]; in the dark) | Φ1O2 (a) singlet oxygen quantum yield [2] | IC50 [3, 7] | IC50 ([3]; in the dark) | kobs, rate constant of the DHN photo-oxidation process [4] | Φ1O2 (b) singlet oxygen quantum yield [4] | IC50 ([5]; 30′ LED light exposure) | IC50 ([5]; in the dark) | standard quantum yield of 1O2 production [6]
Cc1ccnc(-c2cc(C)ccn2)c1.F[P-](F)(F)(F)(F)F.F[P-](F)(F)(F)(F)F.[Ru+2].c1ccc2cc3nc4c5cccnc5c5ncccc5c4nc3cc2c1.c1ccc2cc3nc4c5cccnc5c5ncccc5c4nc3cc2c1 [Complex IIIa] | 25.3 nM | > 40000 nM | 0.54 ± 0.06 | 164 nM | > 40000 nM | 1.85×10^−3 | 0.44 |  |  | 
O=C([O-])c1ccnc(-c2cc(C(=O)[O-])ccn2)c1.[Ru+2].c1ccc2cc3nc4c5cccnc5c5ncccc5c4nc3cc2c1.c1ccc2cc3nc4c5cccnc5c5ncccc5c4nc3cc2c1 [Complex IIIb, [Ru(4,4′-dicarboxylate-2,2′-bipyridine)(benzo[i]dipyrido[3,2-a:2′,3′-c]phenazine)2]] | 191 nM | > 40000 nM | 0.50 ± 0.07 |  |  | 2.71×10^−3 | 0.47 |  |  | 
F[P-](F)(F)(F)(F)F.F[P-](F)(F)(F)(F)F.O=C(c1ccnc(-c2cc(C(=O)N3CCOCC3)ccn2)c1)N1CCOCC1.[Ru+2].c1ccc2cc3nc4c5cccnc5c5ncccc5c4nc3cc2c1.c1ccc2cc3nc4c5cccnc5c5ncccc5c4nc3cc2c1 [Complex IIIc] |  |  | 0.54 ± 0.6 |  |  | 1.83×10^−3 | 0.42 | 63.9 nM | > 40000 nM | 
[Cl][Ru][Cl].c1cnc2c(c1)ccc1cccnc12.c1cnc2c(c1)ccc1cccnc12.c1cnc2c(c1)ccc1cccnc12 [[Ru(phen)3]Cl2, dichlorotris(1,10-phenanthroline)ruthenium (II) chloride, reference compound] |  |  |  |  |  | 9.41×10^−4 |  |  |  | 0.38
